Reference: ChEMBL document CHEMBL1201862, “PubChem BioAssay data set” (2004)
Active and inactive are the calls of the source.

How the values were obtained:
[1] = molecular target: T1, Corticotropin-releasing factor receptor 2/Corticotropin-releasing factor-binding protein (Homo sapiens, UniProt P24387+Q13324); experiment: activators of CRF receptor 2 with binding protein – uHTS hits, confirmation (AID 602473); type: functional; details: read-out: EC50_Mean
T1 sequence (Q13324 whole entry): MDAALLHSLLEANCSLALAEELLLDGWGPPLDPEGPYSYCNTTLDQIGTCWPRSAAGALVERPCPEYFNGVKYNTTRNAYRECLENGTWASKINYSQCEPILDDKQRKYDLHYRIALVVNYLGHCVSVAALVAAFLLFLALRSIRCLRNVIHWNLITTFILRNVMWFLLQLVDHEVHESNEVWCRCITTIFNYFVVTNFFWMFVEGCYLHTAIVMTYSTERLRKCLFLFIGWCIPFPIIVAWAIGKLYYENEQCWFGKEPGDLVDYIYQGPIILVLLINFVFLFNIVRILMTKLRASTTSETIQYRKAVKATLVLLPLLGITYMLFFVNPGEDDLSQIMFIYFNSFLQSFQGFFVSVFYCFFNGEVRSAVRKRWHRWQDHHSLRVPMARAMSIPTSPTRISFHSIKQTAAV
T1 sequence (P24387 whole entry): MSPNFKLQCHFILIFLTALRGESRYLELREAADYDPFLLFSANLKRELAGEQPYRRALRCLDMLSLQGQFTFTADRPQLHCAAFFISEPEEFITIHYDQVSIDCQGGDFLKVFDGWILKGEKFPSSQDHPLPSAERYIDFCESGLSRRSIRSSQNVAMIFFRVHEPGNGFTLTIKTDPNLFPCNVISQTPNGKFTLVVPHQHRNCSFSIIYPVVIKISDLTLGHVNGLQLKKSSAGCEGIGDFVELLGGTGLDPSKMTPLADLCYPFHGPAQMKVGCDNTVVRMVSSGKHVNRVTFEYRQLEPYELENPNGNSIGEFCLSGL

Protein skinhead-1 = molecular target: T2, Protein skinhead-1 (Caenorhabditis elegans, UniProt P34707); type: functional
T2 sequence (P34707 whole entry): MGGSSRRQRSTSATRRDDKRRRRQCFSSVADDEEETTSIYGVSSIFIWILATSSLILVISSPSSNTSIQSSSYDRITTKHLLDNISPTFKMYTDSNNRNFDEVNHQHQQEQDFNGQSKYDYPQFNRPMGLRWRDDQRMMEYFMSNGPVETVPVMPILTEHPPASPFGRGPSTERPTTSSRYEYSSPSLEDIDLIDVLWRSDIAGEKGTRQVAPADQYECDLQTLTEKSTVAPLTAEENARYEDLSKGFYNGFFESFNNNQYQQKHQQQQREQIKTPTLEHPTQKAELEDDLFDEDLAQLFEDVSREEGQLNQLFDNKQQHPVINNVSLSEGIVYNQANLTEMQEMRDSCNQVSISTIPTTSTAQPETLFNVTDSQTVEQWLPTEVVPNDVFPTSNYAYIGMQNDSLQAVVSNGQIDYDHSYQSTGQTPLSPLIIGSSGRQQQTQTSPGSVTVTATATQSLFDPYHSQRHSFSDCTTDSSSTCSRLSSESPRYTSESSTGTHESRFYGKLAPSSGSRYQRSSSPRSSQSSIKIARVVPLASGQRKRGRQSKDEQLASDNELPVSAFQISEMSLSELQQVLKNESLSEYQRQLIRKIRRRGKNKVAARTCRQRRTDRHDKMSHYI

[2] = molecular target: T1, Corticotropin-releasing factor receptor 2/Corticotropin-releasing factor-binding protein; experiment: Dose Response confirmation of uHTS hits for small molecule antagonists of the CRF-binding protein and CRF-R2 receptor complex.; type: functional; details: read-out: IC50_Mean
[3] = CRF-BP/CRF-R2 complex antagonists, dose response, cell-based, uHTS hits, 384-well (AID 651639); type: functional, Homo sapiens; details: read-out: IC50_Mean
cells = type: functional
[4] = molecular target: T3, RNA-binding protein pos-1 (Caenorhabditis elegans, UniProt G5EF15); experiment: inhibitors of POS-1/mex-3 RNA binding, dose response, biochemical, fluorescence polarization (AID 1964);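 note: purified POS-1 fused to maltose binding protein made in E. coli; potency of compounds blocking POS-1 binding to fluorescent RNA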
T3 sequence (G5EF15 whole entry): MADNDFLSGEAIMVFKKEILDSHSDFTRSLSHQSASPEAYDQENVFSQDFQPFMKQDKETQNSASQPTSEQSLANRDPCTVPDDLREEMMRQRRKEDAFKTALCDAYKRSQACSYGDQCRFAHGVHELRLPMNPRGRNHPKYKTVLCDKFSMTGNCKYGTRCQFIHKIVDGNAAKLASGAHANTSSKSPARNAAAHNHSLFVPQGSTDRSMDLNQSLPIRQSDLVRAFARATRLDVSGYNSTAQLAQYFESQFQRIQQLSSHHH

[5] = molecular target: T4, Zinc finger protein mex-5 (Caenorhabditis elegans, UniProt Q9XUB2); experiment: MEX-5/TCR-2 RNA interaction inhibitors, dose response, biochemical, C. elegans, fluorescence polarization (AID 1960)
T4 sequence (Q9XUB2 whole entry): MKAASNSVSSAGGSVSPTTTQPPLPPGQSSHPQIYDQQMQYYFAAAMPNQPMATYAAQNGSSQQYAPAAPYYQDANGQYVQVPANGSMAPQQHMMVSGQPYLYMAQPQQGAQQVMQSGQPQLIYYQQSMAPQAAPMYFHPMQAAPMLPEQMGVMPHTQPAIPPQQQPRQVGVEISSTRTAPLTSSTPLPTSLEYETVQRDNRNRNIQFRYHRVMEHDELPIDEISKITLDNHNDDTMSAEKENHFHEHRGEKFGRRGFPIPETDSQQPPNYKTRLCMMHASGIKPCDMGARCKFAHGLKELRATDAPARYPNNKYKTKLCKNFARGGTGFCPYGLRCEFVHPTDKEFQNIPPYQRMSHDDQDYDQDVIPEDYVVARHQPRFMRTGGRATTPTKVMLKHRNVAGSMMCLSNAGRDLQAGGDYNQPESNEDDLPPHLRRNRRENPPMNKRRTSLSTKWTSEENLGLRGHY

Aminopeptidase N = molecular target: T5, Aminopeptidase N (Plasmodium falciparum FcB1/Columbia, UniProt O96935); experiment: P. falciparum M1AAP inhibitors, biochemical, fluorogenic H-Leu-NHMec substrate, 1536-well (AID 1445); set-up: species or system Plasmodium falciparum 3D7, 3D7
T5 sequence (O96935 whole entry): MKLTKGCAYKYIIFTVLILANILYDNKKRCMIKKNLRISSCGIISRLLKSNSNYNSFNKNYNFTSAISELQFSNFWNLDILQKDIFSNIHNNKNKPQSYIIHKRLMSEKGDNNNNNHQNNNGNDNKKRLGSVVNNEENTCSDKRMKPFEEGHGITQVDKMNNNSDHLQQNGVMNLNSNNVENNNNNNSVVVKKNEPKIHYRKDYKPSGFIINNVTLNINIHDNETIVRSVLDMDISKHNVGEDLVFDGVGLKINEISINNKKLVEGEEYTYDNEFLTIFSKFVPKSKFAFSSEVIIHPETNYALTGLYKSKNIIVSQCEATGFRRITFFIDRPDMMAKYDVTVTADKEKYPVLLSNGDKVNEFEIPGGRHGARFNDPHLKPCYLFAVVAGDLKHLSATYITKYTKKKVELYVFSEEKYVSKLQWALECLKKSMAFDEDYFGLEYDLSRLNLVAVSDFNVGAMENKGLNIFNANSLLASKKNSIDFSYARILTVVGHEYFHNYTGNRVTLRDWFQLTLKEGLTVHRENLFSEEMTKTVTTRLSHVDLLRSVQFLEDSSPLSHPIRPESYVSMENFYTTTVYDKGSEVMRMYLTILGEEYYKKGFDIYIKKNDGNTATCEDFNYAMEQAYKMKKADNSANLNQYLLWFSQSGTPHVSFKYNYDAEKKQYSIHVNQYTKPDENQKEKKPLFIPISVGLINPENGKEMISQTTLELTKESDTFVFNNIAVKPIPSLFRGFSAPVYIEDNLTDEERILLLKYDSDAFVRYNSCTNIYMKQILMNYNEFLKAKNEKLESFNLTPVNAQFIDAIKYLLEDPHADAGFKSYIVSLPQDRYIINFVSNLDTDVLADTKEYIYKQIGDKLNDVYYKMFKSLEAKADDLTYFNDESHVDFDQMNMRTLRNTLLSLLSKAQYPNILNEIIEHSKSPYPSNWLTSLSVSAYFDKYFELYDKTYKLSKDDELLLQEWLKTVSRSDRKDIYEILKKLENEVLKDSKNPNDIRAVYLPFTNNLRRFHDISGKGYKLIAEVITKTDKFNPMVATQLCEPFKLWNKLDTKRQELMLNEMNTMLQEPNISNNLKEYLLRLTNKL

Albumin = Albumin (Bos taurus, UniProt P02769); experiment: Counterscreen for inhibitors of T-cell receptor (TCR)-CD3 interaction: Fluorescence-based biochemical high throughput dose response assay to identify inhibitors of T-cell receptor (TCR)-CD3 interaction using a TAMRA-labeled BSA probe.; type: functional
[6] = molecular target: T6, Carboxy-terminal domain RNA polymerase II polypeptide A small phosphatase 1 (Homo sapiens, UniProt Q9GZU7); experiment: inhibitors of CTDSP1, concentration-response testing, biochemical assay, absorbance-based, actives from ultra-high-throughput screening (AID 540297); type: functional
T6 sequence (Q9GZU7 whole entry): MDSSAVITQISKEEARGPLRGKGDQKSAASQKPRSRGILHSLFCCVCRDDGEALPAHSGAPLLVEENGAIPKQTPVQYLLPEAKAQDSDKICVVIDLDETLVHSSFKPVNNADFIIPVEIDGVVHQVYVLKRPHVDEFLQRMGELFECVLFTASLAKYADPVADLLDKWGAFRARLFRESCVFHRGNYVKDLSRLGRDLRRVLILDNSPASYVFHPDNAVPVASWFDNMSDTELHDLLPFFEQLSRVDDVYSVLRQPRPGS

Fatty acid synthase [7] = molecular target: T7, Fatty acid synthase (Homo sapiens, UniProt P49327); experiment: FAS thioesterase domain inhibitors, dose response, biochemical, endpoint fluorescence intensity, uHTS hits (AID 624327); type: functional;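 note: fluorescence from hydrolysis of an O-methyl fluorescein acyl ester substrate by the enzyme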
Fatty acid synthase [8] = molecular target: T7, Fatty acid synthase; experiment: FAS thioesterase domain inhibitors, dose response, biochemical, kinetic fluorescence intensity (AID 624326); type: functional;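 note: rate of fluorescence rise from hydrolysis of a fluorogenic O-methyl fluorescein ester substrate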
[9] = molecular target: T8, Sentrin-specific protease 8 (Homo sapiens, UniProt Q96LD8); type: functional
T8 sequence (Q96LD8 whole entry): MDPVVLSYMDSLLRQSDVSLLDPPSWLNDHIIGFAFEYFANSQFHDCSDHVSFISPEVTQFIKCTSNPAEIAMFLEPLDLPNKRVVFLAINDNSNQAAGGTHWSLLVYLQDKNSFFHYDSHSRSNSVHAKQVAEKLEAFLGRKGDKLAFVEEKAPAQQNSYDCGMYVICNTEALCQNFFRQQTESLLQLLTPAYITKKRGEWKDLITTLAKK

[10] = molecular target: T8, Sentrin-specific protease 8; type: functional; remark: listed apart in the source
[11] = inhibitors of HIV Env-driven cell fusion, dose response, cherry-pick (AID 652057); type: functional, cell-based
[12] = off-target signal loss in HeLa-CEM21 co-culture – HeLa F-luc CTL cells, cherry-picked, counter-screen for HIV-1 Env fusion inhibitor project, dose response (AID 652040); type: functional, cell-based;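 note: potency for signal decrease marking cytotoxic or nonspecific inhibition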
[13] = ZM109 Env clade C HIV-1 fusion inhibitors, dose response, HeLa effector, CEM target cells, luciferase, cherry-pick (AID 652058); type: functional, cell-based
[14] = CEM21 lymphoblast cell cytotoxicity, dose response, cytotoxicity control for viral fusion inhibitor project, CellTiter-Glo luminescence, cherry-picked (AID 652042); type: functional, cell-based;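 note: potency for signal decrease meaning cytotoxicity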
[15] = inhibitors of clade B AD8 Env fusion, dose response, cell-based, cherry-pick (AID 652062); type: functional;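 note: luciferase signal from cell-cell fusion driven by HIV-1 clade B AD8 Env; potency is for inhibitors of fusion seen as a drop in luminescence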
[16] = molecular target: 5-hydroxytryptamine receptor 2A (Mus musculus, UniProt P35363); type: functional, cell-based;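 note: CHO-K1 cells with tagged receptor and beta-arrestin; agonist potency measured as compound-induced activation of the receptor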
Mu-type opioid receptor = Mu-type opioid receptor (Homo sapiens, UniProt P35372); type: functional, cell-based;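 note: U2OS cells with beta-arrestin recruitment to OPRM1 by beta-gal complementation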
Vero = experiment: cells; type: functional; details: Chlorocebus sabaeus
Streptococcus = experiment: Group A Streptococcus viability loss, dose response, counter-screen for streptokinase expression inhibitor project, luminescence, BacTiterGlo (AID 1915); type: functional, organism-based;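 note: potency for reduction of bacterial viability or growth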
[17] = system: Streptococcus sp. 'group A'; experiment: growth inhibition of control SK(-) GAS strain, dose response, counter-screen for streptokinase expression inhibitor project, luminescence, kanamycin, BacTiterGlo, confirmation (AID 1900); type: functional, organism-based

Chain of Mu-type opioid receptor (P35372 whole entry): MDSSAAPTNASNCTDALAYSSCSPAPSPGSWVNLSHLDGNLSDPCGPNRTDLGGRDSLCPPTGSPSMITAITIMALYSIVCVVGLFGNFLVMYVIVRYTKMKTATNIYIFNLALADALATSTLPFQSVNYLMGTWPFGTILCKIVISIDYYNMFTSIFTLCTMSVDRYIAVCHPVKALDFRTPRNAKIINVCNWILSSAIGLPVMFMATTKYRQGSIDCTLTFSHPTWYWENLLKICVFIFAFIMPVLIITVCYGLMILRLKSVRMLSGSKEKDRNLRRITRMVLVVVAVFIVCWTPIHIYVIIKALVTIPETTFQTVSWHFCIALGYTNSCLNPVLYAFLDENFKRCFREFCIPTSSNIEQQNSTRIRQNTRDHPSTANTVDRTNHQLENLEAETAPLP
Chain of 5-hydroxytryptamine receptor 2A (P35363 whole entry): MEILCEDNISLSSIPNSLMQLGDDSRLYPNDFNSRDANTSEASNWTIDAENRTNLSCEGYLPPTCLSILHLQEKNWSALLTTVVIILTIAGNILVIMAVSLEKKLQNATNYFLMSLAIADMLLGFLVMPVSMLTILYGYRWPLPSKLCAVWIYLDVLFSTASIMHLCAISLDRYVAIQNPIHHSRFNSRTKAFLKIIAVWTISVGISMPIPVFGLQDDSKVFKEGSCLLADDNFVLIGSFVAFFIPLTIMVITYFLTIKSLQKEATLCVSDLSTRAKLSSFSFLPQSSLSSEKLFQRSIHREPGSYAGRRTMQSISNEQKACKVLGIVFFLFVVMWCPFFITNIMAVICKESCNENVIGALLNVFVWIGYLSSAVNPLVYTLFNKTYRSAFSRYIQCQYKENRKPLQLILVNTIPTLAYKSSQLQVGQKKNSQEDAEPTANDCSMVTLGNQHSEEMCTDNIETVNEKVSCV
T7 sequence (P49327 whole entry, the tested form may be a part): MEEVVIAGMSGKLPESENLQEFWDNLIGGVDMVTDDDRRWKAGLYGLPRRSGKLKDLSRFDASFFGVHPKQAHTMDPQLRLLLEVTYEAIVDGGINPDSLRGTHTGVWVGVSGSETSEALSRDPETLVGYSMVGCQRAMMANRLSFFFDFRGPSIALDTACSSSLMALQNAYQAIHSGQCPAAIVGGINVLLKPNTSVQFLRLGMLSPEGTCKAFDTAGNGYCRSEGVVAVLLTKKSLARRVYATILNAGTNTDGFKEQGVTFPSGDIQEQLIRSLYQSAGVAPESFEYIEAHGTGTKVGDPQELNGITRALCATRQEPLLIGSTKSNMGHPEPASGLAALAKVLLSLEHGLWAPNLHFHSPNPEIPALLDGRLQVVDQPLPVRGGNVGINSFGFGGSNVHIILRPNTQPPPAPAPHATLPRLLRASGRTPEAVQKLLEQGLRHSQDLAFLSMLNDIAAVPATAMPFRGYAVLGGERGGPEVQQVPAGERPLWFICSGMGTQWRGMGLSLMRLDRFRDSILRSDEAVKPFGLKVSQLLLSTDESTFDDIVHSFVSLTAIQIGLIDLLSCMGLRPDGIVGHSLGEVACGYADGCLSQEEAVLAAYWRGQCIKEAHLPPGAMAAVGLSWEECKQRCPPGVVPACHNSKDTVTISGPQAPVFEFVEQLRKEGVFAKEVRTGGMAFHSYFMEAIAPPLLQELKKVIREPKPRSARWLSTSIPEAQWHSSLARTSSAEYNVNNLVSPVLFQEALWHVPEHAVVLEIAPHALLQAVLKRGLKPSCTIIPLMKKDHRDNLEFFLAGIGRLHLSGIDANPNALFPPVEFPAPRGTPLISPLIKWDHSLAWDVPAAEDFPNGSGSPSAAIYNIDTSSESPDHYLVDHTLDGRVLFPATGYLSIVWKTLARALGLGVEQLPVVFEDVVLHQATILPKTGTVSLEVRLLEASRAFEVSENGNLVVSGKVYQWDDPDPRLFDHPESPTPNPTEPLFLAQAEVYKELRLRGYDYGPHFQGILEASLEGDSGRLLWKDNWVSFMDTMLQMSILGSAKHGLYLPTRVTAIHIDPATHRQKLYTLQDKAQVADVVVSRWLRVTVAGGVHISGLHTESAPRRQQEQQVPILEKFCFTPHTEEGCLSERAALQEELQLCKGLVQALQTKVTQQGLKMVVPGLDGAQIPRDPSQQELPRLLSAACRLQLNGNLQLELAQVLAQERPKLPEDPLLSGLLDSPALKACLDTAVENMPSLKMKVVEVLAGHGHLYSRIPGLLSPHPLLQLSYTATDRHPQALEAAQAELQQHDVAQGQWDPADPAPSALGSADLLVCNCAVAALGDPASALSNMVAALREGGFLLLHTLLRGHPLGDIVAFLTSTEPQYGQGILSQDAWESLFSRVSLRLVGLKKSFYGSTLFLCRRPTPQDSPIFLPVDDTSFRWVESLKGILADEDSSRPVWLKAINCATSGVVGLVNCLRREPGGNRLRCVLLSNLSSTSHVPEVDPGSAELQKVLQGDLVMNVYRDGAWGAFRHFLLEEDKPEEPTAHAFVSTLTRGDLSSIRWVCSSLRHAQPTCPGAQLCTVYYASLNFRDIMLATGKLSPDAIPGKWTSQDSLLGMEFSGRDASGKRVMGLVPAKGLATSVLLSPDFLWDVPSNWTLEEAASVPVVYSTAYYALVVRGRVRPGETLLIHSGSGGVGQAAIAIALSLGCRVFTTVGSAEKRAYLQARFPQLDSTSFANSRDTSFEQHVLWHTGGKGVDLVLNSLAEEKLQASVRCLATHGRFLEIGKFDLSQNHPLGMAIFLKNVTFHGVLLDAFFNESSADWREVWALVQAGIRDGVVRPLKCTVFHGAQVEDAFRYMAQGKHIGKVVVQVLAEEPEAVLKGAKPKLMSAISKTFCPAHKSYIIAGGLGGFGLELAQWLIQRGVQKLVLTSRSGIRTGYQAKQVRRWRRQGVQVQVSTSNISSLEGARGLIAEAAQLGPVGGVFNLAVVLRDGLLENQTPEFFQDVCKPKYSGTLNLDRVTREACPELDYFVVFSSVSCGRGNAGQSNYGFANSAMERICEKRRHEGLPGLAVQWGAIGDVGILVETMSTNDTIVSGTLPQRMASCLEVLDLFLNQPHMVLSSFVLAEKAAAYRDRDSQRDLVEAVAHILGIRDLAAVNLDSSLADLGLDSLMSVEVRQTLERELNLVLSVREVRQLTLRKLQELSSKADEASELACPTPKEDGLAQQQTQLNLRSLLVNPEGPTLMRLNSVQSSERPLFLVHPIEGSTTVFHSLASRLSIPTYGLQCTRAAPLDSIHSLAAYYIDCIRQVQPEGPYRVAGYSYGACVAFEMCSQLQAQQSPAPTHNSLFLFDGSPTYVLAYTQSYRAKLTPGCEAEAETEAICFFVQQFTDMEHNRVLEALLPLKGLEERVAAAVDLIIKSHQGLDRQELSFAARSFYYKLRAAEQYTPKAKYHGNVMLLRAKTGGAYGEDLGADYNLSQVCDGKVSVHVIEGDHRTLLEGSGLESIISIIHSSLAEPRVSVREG
Chain of Albumin (P02769 whole entry, the tested form may be a part): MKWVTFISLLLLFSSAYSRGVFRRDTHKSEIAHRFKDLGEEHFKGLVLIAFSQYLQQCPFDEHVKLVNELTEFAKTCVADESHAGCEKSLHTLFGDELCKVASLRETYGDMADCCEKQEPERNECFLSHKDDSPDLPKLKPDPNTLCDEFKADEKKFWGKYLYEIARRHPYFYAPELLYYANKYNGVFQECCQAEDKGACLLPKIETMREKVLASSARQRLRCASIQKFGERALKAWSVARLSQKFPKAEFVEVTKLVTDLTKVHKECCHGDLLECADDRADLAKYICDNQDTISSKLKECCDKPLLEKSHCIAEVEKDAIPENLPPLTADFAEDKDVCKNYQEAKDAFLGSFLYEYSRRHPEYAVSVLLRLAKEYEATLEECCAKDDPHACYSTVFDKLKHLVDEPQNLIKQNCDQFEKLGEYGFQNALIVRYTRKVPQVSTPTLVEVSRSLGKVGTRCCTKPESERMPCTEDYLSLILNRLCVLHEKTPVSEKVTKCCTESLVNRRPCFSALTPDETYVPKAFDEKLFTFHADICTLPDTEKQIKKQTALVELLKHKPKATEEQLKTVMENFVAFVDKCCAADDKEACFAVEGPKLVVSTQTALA

Cc1cc(C)n(-c2ccc(C(=O)Oc3ccc4c(c3)OCO4)cc2)n1
EC50 [1]: > 53 µM (inactive)
IC50 (Protein skinhead-1): > 100 µM (inactive)
IC50 [2]: 9.66 µM (active)
IC50 [3]: > 20 µM (inactive)
IC50 (cells): 6.28 µM (active)

Cc1cc(C(=O)N/N=C/c2cc(Cl)cc([N+](=O)[O-])c2O)[nH]n1
EC50 [4]: > 300 µM (not active)
EC50 [5]: > 300 µM (inconclusive)
IC50 (Aminopeptidase N): 52.3 µM (active)
IC50 (Albumin): > 94.1 µM (inactive)

Cc1ccc(-n2[nH]c(C)c(/C=N/Nc3ccc([N+](=O)[O-])cc3[N+](=O)[O-])c2=O)cc1
EC50 [1]: > 53 µM (inactive)
IC50 [6]: 6.07 µM (active)
IC50 (Fatty acid synthase [7]): 12.6 µM (active)
IC50 (Fatty acid synthase [8]): 13.6 µM (active)
IC50 [2]: 6.1 µM (active)
IC50 [9]: 62.4 µM (inactive)
IC50 [10]: 100 µM (inactive)

COc1ccc(CC(N)c2csc(NC(=O)Nc3ccccc3Oc3ccccc3)n2)cc1 (configuration not stated)
AC50 [11]: 1.17 µM (active)
AC50 [12]: 1.72 µM (active)
AC50 [13]: 2.85 µM (active)
AC50 [14]: 21.3 µM (active)
AC50 [15]: 2.16 µM (active)

O=C(C1CCC1)N1CCc2cc(S(=O)(=O)NCCN3CCN(c4ccccc4F)CC3)ccc21
EC50 [16]: 13.4 µM (inactive)
EC50 (Mu-type opioid receptor): 92.5 µM (inactive)

O=C1NC(=S)S/C1=C\c1cc(Cl)ccc1Cl
EC50 [1]: > 53 µM (inactive)
IC50 [2]: 2.87 µM (active)
IC50 [3]: 9.52 µM (active)

CC(=O)NC(Cc1ccc(C(C)C)cc1)C(=O)NC1CCN(C(=O)c2cccc(C)c2)CC1 (configuration not stated)
EC50 [1]: > 53 µM (inactive)
IC50 [2]: 24.4 µM (active)
IC50 [3]: 10.8 µM (active)

O=C(c1ccco1)N1CCN(CCCCOc2ccc(F)cc2)CC1
EC50 [16]: 4.68 µM (active)
EC50 (Mu-type opioid receptor): 92.5 µM (inactive)

COc1ccc(C(=O)NNC(=S)NC(=O)c2ccc(Br)o2)cc1OC
CC50 (Vero): > 25 µM (active)
EC50 (Streptococcus): 9.11 µM (active)
EC50 [17]: 0.79 µM (active)
IC50 (Albumin): > 94.1 µM (inactive)

CCOC(=O)C1CCN(Cc2cccc(Oc3ccc(Cl)cc3)c2)CC1
EC50 [16]: 2.82 µM (active)
EC50 (Mu-type opioid receptor): 92.5 µM (inactive)
